# According to publication PMC10974743, “Design, Synthesis, and Biological Evaluation of Novel Phenoxy Acetic Acid Derivatives as Selective COX-2 Inhibitors Coupled with Comprehensive Bio-Pharmacological Inquiry, Histopathological Profiling, and Toxicological Scrutiny” (Molecules, 2024):
# Entries after “also recorded” stand apart in the source; their conditions may differ. Marks after values point to notes of the source that are not given here.
# Columns and labels:
# [1] = system: nociceptive responses on hot plate; assay: Hot plate latency test (analgesic activity); format: in vivo, rats; conditions: for Hot plate latency period: plate 50 °C, mean ± SD, n = 6
# Protocol: The hot plate latency test was performed according to the following procedures (Supplementary Materials, page 54). […]
# In summary, thirty rats
# The normal control group received 1% CMC, while the remaining groups were administered their respective reference or test compounds. Each rat was gently positioned on a heated plate set at 50 ◦C. The latency period for nociceptive responses, such as paw licking or jumping off the hot plate, was recorded at 30-, 60-, 90-, and 120 minutes post-administration of the reference drugs, test […]
# TNF-α = TNF-α content of paw exudate by ELISA, carrageenan paw edema model; format: in vivo, Sprague Dawley rats; conditions: vs carrageenan group
# Protocol: (§1) ELISA assessment assays were conducted as cited (Supplementary Materials, page 53).
# (§2) In-vivo anti-inflammatory activity […]
# (§3) cervical dislocation. […] The percentage
# (§4) Weight of the left paw] ×100.
# (§5) Assessment of inflammatory biomarkers using ELISA […]
# (§6) content, using enzyme -linked immunosorbent assay (ELISA). The ELISA kits were purchased from CLOUD -CLONE CORP (CCC, USA) (Cat# SEA133Ra) and MyBioSource company (British Columbia, Canada) (Cat# MBS730592) respectively, and the assays were performed following the manufacturer' s instructions. Additionally, the protein content of the exudates was determined using the Bradford method.
# gastric mucosa = assay: Evaluation of ulcerogenic effects (macroscopic scores and gastric histopathology); conditions: for Gastric mucosa histopathological finding: H&E staining; for Ulcer Number Score / Ulcer Severity Score: mean ± SD; for Ulcer Number Score: n = 6; for Ulcer Severity Score: n = 6, scale 0 to 5
# Protocol: The assessment of ulcerogenic effects was conducted following established procedures [42, 57]
# Following the experimental period, the animals were euthanized using pentobarbital sodium (100 mg/kg), and blood was collected via jugular vein exsanguination for later evaluation of liver and kidney function, and subsequently sacrificed by cervical dislocation. […] Following this, the animals' stomachs were removed, inflated, and opened along the greater curvature to evaluate ulcerogenic effects.
# B: Ulcer lesion severity scoring system
# 2.5 More than 10 small ulcers
# 3 1 marked ulcer plus 0 to 4 small ulcers
# 3.5 1 marked ulcer plus 5 or more small ulcers
# 4 2 marked ulcers plus 0 to 4 small ulcers
# 4.5 2 marked ulcers plus 5 or more small ulcers
# 5 3 or more marked ulcers
# The statistical analysis of the data was conducted using GraphPad Prism 9.5.1 Demo
# (GraphPad Software, San Diego, CA). One -way analysis of variance (ANOVA) was utilized to
# evaluate differences among the various groups, except for paw edema volume, which un derwent
# analysis using two -way ANOVA. Post -hoc analysis was performed using Tukey's multiple
# significance set at P < 0.05
# [2] = Assessment of liver and kidney function (serum ALT, AST, creatinine, urea); format: in vivo, rats; design: Urea: unit not given here; conditions: mean ± SD; for ALT / AST / Urea / AST/ALT: n = 6; for Creatinine: n = 6, in mg/dL (unit assumed)
# Protocol: These assessments were conducted following the manufacturer’s instructions (Supplementary Materials, page 55).
# In-vivo anti-inflammatory activity
# as §3, §4
# Assessment of inflammatory biomarkers using ELISA
# PGE2 = PGE2 content of paw exudate by ELISA, carrageenan paw edema model; format: in vivo, Sprague Dawley rats; conditions: vs carrageenan group
# Protocol: as §1, §2, §3, §4, §5, §6
# [3] = system: carrageenan-induced paw edema; assay: Carrageenan paw edema test (paw thickness, paw weight); conditions: for Paw thickness difference: oral; for Paw thickness difference / Paw Weight Increase: mean ± SD, n = 6; for Percentage of inhibition of paw thickness / Inhibition of percentage of paw weight increase: vs carrageenan group; for Paw Weight Increase: right vs left paw, after 5 h
# Protocol: The carrageenan paw edema test was conducted following established procedures as detailed (Supplementary Materials, page 53).
# The carrageenan paw edema test was conducted following established procedures. In summary, seventy-two rats were randomly assigned to twelve groups, each comprising six rats.
# These groups included normal controls, carrageenan controls (both receiving the vehicle; 1%
# Acute inflammation was induced in the right hind paws of all rats one hour after oral administration of the respective compounds or vehicle. This was achieved by injecting a freshly prepared 0.1 mL carrageenan suspension (1% in normal saline) subplantarly into the right hind paw, except for the normal control group, which received a saline injection. Paw thickness was measured hourly (Ct) until the fifth hour (C5) post-carrageenan injection (C0). The hourly increase in paw thickness (paw thickness difference) was calculated by subtracting the initial measurement (C0) from the thickness at each hour (Ct), and the results were presented as the mean increase in paw thickness (mm). To evaluate anti-inflammatory effects, the percentage of inhibition for each standard and test compound was determined using the formula: percentage of inhibition (%) = [(Paw thickness difference of carrageenan group - Paw thickness difference of treated)/ Paw thickness difference of carrageenan group] × 100. […] The paws were then excised and weighed (both left and right). The percentage of weight increase between the left and right paws of each animal was calculated using the equation: Percentage of weight increase = [(Weight of the right paw - Weight of the left paw) / Weight of the left paw] ×100.
# [4] = system: paw tissue, carrageenan paw edema model; assay: Histopathological examination of paws, inflammatory cell infiltration score; format: in vivo, rats; conditions: for Paw histopathological finding: H&E staining, carrageenan paw edema; for Reduction in inflammatory cell infiltration score: vs carrageenan group, paw, 5 hours
# Protocol: The histopathological assessments were performed according to the following procedures (Supplementary Materials, page 54). […]
# Histopathological examination
# Thirty-six rats were separated into six groups of six rats each for histological assessment […]
# groupings consisted of a control group, a carrageenan group, two groups for the reference drugs […]
# protocols that were utilized in the in-vivo anti-inflammatory activity test were used. After a duration of 5 hours, the animals were euthanized, and their left paws were amputated. The paws were preserved in 10% neutral buffered formalin, trimmed, washed, dehydrated in increasing concentrations of ethyl alcohol, clarified in xylene, and ultimately embedded in paraffin. They were then sliced into 4-6µ thick slices, stained with Hematoxylin and Eosin, and examined under a light microscope. A scoring system was used to evaluate the degree of inflammation, dividing it into six categories ranging from 0 indicating no inflammation to 5 indicating severe inflammation.
# Each score corresponded to a certain level of inflammation: 0 for no inflammation, 1 for mild inflammation, 2 for mild to moderate inflammation, 3 for moderate inflammation, 4 for moderate to severe inflammation, and 5 for severe inflammation.
# human COX-2 = target: T1, human COX-2 (Homo sapiens, UniProt P35354); assay: In vitro COX-2 inhibition assay (Cayman colorimetric COX inhibitor screening kit); conditions: for IC50: COX-2 IC50, mean ± SEM, n = 3
# T1 sequence (P35354 18-604): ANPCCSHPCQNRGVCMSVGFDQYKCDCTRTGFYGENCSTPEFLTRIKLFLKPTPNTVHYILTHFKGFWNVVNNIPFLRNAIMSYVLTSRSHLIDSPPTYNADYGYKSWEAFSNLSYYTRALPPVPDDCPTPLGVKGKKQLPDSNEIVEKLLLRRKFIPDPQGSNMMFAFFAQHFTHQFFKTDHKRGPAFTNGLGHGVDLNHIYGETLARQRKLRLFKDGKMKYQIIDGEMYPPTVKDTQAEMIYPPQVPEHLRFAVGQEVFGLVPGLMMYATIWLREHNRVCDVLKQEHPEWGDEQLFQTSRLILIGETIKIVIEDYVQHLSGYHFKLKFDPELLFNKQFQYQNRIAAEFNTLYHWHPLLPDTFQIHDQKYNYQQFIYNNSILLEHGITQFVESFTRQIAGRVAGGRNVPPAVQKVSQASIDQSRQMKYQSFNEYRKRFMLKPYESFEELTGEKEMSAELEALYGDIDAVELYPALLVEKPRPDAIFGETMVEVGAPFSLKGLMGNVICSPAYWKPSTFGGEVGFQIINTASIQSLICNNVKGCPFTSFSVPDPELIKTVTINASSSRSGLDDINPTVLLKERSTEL
# Protocol: (§7) The in vitro enzyme assays were performed at the Biochemistry Department, Cairo
# (§8) General Hospital, Egypt. Cayman® colorimetric COX (ovine) inhibitor screening assay kit (Item
# (§9) enzymes in presence of all newly compounds. Generally, this kit is dependent on the reductive
# (§10) reaction of COX. A specific antibody binds to PGH2 produced by COX and is further quantified
# (§11) by the ELISA technique as previously reported. After that, the selectivity index (SI) was calculated
# as the following equation:
# 𝐒𝐞𝐥𝐞𝐜𝐭𝐢𝐯𝐢𝐭𝐲 𝐢𝐧𝐝𝐞𝐱 (𝐒𝐈) = 𝐈𝐂₅₀𝐨𝐟 𝐂𝐎𝐗 − 𝟏
# ovine COX-1 = target: T2, ovine COX-1 (Ovis aries, UniProt P05979); assay: In vitro COX-1 inhibition assay (Cayman colorimetric COX inhibitor screening kit)
# T2 sequence (P05979 25-600): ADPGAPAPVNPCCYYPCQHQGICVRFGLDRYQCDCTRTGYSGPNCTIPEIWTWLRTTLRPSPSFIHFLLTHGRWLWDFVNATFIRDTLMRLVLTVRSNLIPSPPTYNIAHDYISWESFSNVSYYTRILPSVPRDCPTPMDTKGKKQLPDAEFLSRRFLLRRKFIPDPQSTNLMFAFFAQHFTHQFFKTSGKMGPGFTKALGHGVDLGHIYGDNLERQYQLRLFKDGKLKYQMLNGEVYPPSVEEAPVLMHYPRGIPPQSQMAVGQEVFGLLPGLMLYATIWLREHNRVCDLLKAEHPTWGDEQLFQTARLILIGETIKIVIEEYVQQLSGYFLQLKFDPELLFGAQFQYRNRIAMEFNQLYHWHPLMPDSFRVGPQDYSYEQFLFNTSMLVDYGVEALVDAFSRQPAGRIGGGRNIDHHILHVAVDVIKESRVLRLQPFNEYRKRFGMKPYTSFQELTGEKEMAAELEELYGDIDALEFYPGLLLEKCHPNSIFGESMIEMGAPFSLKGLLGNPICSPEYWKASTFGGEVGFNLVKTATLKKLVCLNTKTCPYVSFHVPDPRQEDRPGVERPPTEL
# Protocol: as §7, §8, §9, §10, §11
# as the following equation:
# 𝐒𝐞𝐥𝐞𝐜𝐭𝐢𝐯𝐢𝐭𝐲 𝐢𝐧𝐝𝐞𝐱 (𝐒𝐈) = 𝐈𝐂₅₀𝐨𝐟 𝐂𝐎𝐗 − 𝟏
smiles,measurement,setting,value
"Cc1ccc(-c2cc(C(F)(F)F)nn2-c2ccc(S(N)(=O)=O)cc2)cc1 [Celecoxib, celecoxib, reference compound]",Hot plate latency period,[1]; 30 min post-administration,8.39 ± 0.22 ^a
same,Hot plate latency period,[1]; 60 min post-administration,9.95 ± 0.23 ^a
same,Hot plate latency period,[1]; 90 min post-administration,11.63 ± 0.60 ^a
same,Increase in latency period,[1]; 120 min mark,46.70%
same,Hot plate latency period,[1]; 120 min post-administration,13.88 ± 0.41 ^a
same,Reduction of TNF-α exudate content,TNF-α,63.52%
same,Gastric mucosa histopathological finding,gastric mucosa,ulcer formation with eroded gastric mucosa; also recorded: developed ulcers with degraded gastric mucosa
same,Ulcer Number Score,gastric mucosa,1.00 ± 0.63
same,Ulcer Severity Score,gastric mucosa,0.75 ± 0.52
same,ALT,[2],92.94 ± 5.00 IU/L
same,AST,[2],101.23 ± 10.04 IU/L
same,Urea,[2],26.28 ± 3.11
same,Creatinine,[2],0.73 ± 0.03
same,Reduction of PGE2 exudate content,PGE2,60.16%
same,Paw thickness difference,[3]; 1st h after carrageenan,1.4 ± 0.38 mm
same,Percentage of inhibition of paw thickness,[3]; 1st h,29.31%
same,Paw thickness difference,[3]; 2nd h after carrageenan,2.36 ± 0.51 mm
same,Percentage of inhibition of paw thickness,[3]; 2nd h,28.34%
same,Paw thickness difference,[3]; 3rd h after carrageenan,2.83 ± 0.43 mm
same,Percentage of inhibition of paw thickness,[3]; 3rd h,33%
same,Paw thickness difference,[3]; 4th h after carrageenan,3.01 ± 0.57 mm
same,Percentage of inhibition of paw thickness,[3]; 4th h,40.39%
same,Paw thickness difference,[3]; 5th h after carrageenan,3.10 ± 0.23 mm
same,Percentage of inhibition of paw thickness,[3]; 5th h,41.65%
same,Paw Weight Increase,[3],29.95 ± 2.20 ^ab %
same,Paw histopathological finding,[4],dermal infiltration by high number of inflammatory cells mainly neutrophils and lymphocytes; also recorded: significant dermal infiltration by a large quantity of inflammatory cells
"O=C(O)COc1ccc(Br)cc1C=NNC(=O)c1ccc(Cl)cc1 [Compound 5f, 2-(4-Bromo-2-((2-(4-chlorobenzoyl)hydrazineylidene)methyl)phenoxy)acetic acid]",Increase in latency period,[1]; 30 min mark,39.43%
same,Hot plate latency period,[1]; 30 min post-administration,8.99 ± 0.38 ^abc
same,Hot plate latency period,[1]; 60 min post-administration,10.59 ± 0.3 ^abc
same,Hot plate latency period,[1]; 90 min post-administration,12.48 ± 0.65 ^ab
same,Increase in latency period,[1]; 120 min mark,49.50%
same,Hot plate latency period,[1]; 120 min post-administration,14.15 ± 0.38 ^a
same,Reduction of TNF-α exudate content,TNF-α,61.04%
same,Gastric mucosa histopathological finding,gastric mucosa,normal histological structure of gastric mucosa; also recorded: normal histological structure of the stomach mucosa
same,Ulcer Number Score,gastric mucosa,0.50 ± 0.55 ^d
same,Ulcer Severity Score,gastric mucosa,0.33 ± 0.41 ^d
same,ALT,[2],92.76 ± 3.83 IU/L
same,AST,[2],93.69 ± 5.26 IU/L
same,AST/ALT,[2],1.01 ± 0.08
same,Urea,[2],26.37 ± 2.48
same,Creatinine,[2],0.67 ± 0.04
same,SI (COX-2 selectivity index),human COX-2; COX-1 (IC50)/COX-2 (IC50),133.34
same,IC50,human COX-2,60 ± 10 nM
same,Reduction of PGE2 exudate content,PGE2,60.58%
same,Paw thickness difference,[3]; 1st h after carrageenan,0.83 ± 0.15 mm
same,Percentage of inhibition of paw thickness,[3]; 1st h,58.11%
same,Paw thickness difference,[3]; 2nd h after carrageenan,1.65 ± 0.29 mm
same,Percentage of inhibition of paw thickness,[3]; 2nd h,49.85%
same,Paw thickness difference,[3]; 3rd h after carrageenan,2.32 ± 0.17 mm
same,Percentage of inhibition of paw thickness,[3]; 3rd h,45.05%
same,Paw thickness difference,[3]; 4th h after carrageenan,2.68 ± 0.12 mm
same,Percentage of inhibition of paw thickness,[3]; 4th h,46.9%
same,Paw thickness difference,[3]; 5th h after carrageenan,2.84 ± 0.13 mm
same,Paw Weight Increase,[3],29.85 ± 3.88 ^ab %
same,Inhibition of percentage of paw weight increase,[3],68.26%
same,Paw histopathological finding,[4],infiltration by a few numbers of inflammatory cells mainly eosinophils and lymphocytes; also recorded: dermal edema with limited infiltration of inflammatory cells
same,Reduction in inflammatory cell infiltration score,[4],70.37%
same,IC50,ovine COX-1,8000 ± 200 nM
"O=C(O)COc1ccc(Br)cc1C=NNC(=O)Cc1ccccc1 [Compound 7b, 2-(4-Bromo-2-((2-(2-phenylacetyl)hydrazineylidene)methyl)phenoxy)acetic acid]",Increase in latency period,[1]; 30 min mark,37.67%
same,Hot plate latency period,[1]; 30 min post-administration,8.88 ± 0.29 ^ac
same,Hot plate latency period,[1]; 60 min post-administration,10.35 ± 0.35 ^ac
same,Hot plate latency period,[1]; 90 min post-administration,12.09 ± 0.29 ^ac
same,Increase in latency period,[1]; 120 min mark,44.90%
same,Hot plate latency period,[1]; 120 min post-administration,13.71 ± 0.31 ^a
same,Reduction of TNF-α exudate content,TNF-α,64.88%
same,Gastric mucosa histopathological finding,gastric mucosa,infiltration of gastric mucosa by a few numbers of mononuclear inflammatory cells
same,Ulcer Number Score,gastric mucosa,0.67 ± 0.52
same,Ulcer Severity Score,gastric mucosa,0.42 ± 0.38
same,ALT,[2],89.13 ± 8.53 IU/L
same,AST,[2],97.59 ± 6.19 IU/L
same,AST/ALT,[2],1.10 ± 0.12
same,Urea,[2],27.16 ± 1.53
same,Creatinine,[2],0.68 ± 0.05
same,IC50,human COX-2,60 ± 10 nM
same,Reduction of PGE2 exudate content,PGE2,57.07%
same,Paw thickness difference,[3]; 1st h after carrageenan,0.65 ± 0.16 mm
same,Percentage of inhibition of paw thickness,[3]; 1st h,67.23%
same,Paw thickness difference,[3]; 2nd h after carrageenan,1.08 ± 0.21 mm
same,Percentage of inhibition of paw thickness,[3]; 2nd h,67.11%
same,Paw thickness difference,[3]; 3rd h after carrageenan,1.64 ± 0.13 mm
same,Percentage of inhibition of paw thickness,[3]; 3rd h,61.23%
same,Paw thickness difference,[3]; 4th h after carrageenan,1.90 ± 0.19 mm
same,Percentage of inhibition of paw thickness,[3]; 4th h,62.42%
same,Paw thickness difference,[3]; 5th h after carrageenan,1.95 ± 0.19 mm
same,Paw Weight Increase,[3],33.07 ± 1.88 ^ab %
same,Inhibition of percentage of paw weight increase,[3],64.84%
same,Paw histopathological finding,[4],dermal infiltration by a moderate number of mononuclear inflammatory cells; also recorded: moderate infiltration of mononuclear inflammatory cells in the dermis
same,Reduction in inflammatory cell infiltration score,[4],62.96%
same,IC50,ovine COX-1,5930 ± 120 nM
